In patent publication US20230212251A1, “PEPTIDES DERIVED FROM SORTILIN” (UNIVERSITE DE LIMOGES, priority 2019, published 2023):
Where two headings read alike, the source gives them in different places.

How the values were obtained:
Format in all cases: cell-based
cells = test: Cell penetration test via western blot; settings: 0 to 500 nM in complete culture medium, 24 hours' treatment
Protocol: 3. Extraction of the proteins under denaturing conditions Extraction of the whole proteins is carried out directly on the cell layers, after eliminating the supernatants and rinsing the cells in PBS 1×, or even on cell pellets previously stored at −80° C. It is carried out by incubating the cells with the Laemmli lysis buffer (62.5 mM Tris-HCl ref: 11814273001 ROCHE, pH 6.8, 2% SDS ref: L-4509, Sigma-Aldrich, 25% glycerol ref: G5516, Sigma-Aldrich) made up with 1% (v/v) protease inhibitor cocktail (ref: P8340-1ML, Sigma-Aldrich) and 1% (v/v) phosphatase inhibitor cocktail (ref: P0044-1ML, Sigma-Aldrich), in the proportions […] of buffer for 1.10^6 cells for 30 min over ice. In the case of extraction on the cell layer, a scraper (ref: 179693PK, Nunc, ThermoFisher) is used to collect the cells in the lysis buffer. Lysis is then completed by ultrasound parametered at 60 Hz, amplitude 2 s, for 1 minute (ref: SONIVCX-130-220, VWR). The lysates are then centrifuged at 17,000×g (ref: 75002442, Sorvall, ThermoFisher) for 20 min at 4° C., the supernatant containing the proteins is transferred to a sterile 1.5 mL tube (ref: 0030120086, Eppendorf), and the proteins are assayed by the Bradford method.
5. […] The concentration of the polyacrylamide gels varies from 8 to 15% as a function of the molecular weight of the proteins to be separated and analyzed. […]

cell nuclei = test: Subcellular distribution by indirect immunofluorescence; settings: 2D and 3D confocal imaging
Protocol: The cells are seeded on a 24-well plate on 14 mm diameter glass slides. After each treatment condition, the cells are fixed, either with the complete medium containing paraformaldehyde (PFA) at 3.7% for 20 min at 4° C., or with methanol at −20° C. for 5 min. With methanol the fixation is carried out by dehydration (denaturing of the proteins), while with the aldehydes (formaldehyde) the 3D structure of the protein is preserved (fixing by bridging). The phosphorylations are analyzed after fixing with PFA. After fixing, the cell layer is washed 3 times for 5 minutes with […] PBS. In the case of fixing with PFA, the cells are permeabilized with Triton X-100 at 0.1% in PBS for 10 min at 4° C., then washed again. With regard to fixing with methanol, this confers the advantage of fixing and permeabilizing the cells at the same time. […] Starting from the fixing stage, all the solutions are filtered beforehand over a 0.2 μm filter in order to eliminate the fluorescence artefacts and the background noise. […] Then, three washes of 5 min in PBS are carried out, before incubation of the secondary antibody coupled with an Alexa fluor 488® (green fluorescence) (Table 4) for 1 hour at ambient temperature in the PBS-BSA solution. […]

A549 cell line = test: Cell survival measured by XTT (Cell Proliferation Kit II); settings: XTT dehydrogenase activity, read-out: CI50 (concentration giving 50% inhibition of cell activity)
Protocol: The antineoplastic effect of the synthetic peptide, comprising Tat and a V5 tag of sequence SEQ ID NO 7 was tested on the A549 cell line (adenocarcinoma line having no mutation on the EDFR). A concentration range (0 to 10 μM) of the synthetic peptide of sequence SEQ ID NO 7 according to the invention was incubated for 24, 48 and 72 hours in the cell medium and the dehydrogenase activity thereof (proxy for viability) was measured (Cell Proliferation Kit II (XTT)-Roche) at the end of each incubation, i.e. at 24, 48 and 72 hours. Analysis of the graph representing the activity as a function of the log of the synthetic peptide concentration made it possible to establish CI50 values corresponding to the concentrations for which the peptide results in 50% inhibition of cell activity. These latter are respectively equal to 1.42, 1.52 and 0.57 μM for incubation times of 24, 48 and 72 hours.

A549 line = test: Pro-apoptotic effect, real-time IncuCyte Zoom imaging; settings: A549, peptide 1 μM, 96 hours real time
Protocol: (§1) In order to study cell death by apoptosis, the cells are seeded at a concentration of 2000 cells per well in 100 μL of culture medium, in 96-well plates. 24 hours later, the cell medium is removed, then the cells are rinsed once with sterile PBS 1× before adding the culture medium containing the different treatments, including the peptide according to the invention at […], and the reagents necessary for analysis of cell death. These latter are: IncuCyte® Caspase-3/7 Green Reagent (ref: 4440; EssenBio) diluted to 1:1000 in the culture medium; IncuCyte® Annexin V Green Reagent (ref: 4642; EssenBio) diluted to 1:200 diluted in the culture medium. Image acquisition is then carried out by positioning the plates in the IncuCyte Zoom® system (Ref: EssenBio) for 96 hours. Four images per well are then obtained, in high definition, every two hours, with the ×10 objective and the phase-contrast and green channels. These acquisitions are carried out automatically and non-invasively. The data are processed automatically with the IncuCyte Zoom® Live-Cell Analysis System (ref: EssenBio).
(§2) The pro-apoptotic effect of the peptide of sequence SEQ ID NO 7 at the concentration of 1 μM was measured in real time using the IncuCyte Zoom® system for 96 hours on the A549 line, on human fibroblasts (non-cancerous cells), as well as on two lines of adenocarcinomas H3255 and H1975, respectively presenting mutations of EGFR that are sensitive (L858R) and resistant (L858R/T790M) to the tyrosine kinase activity receptor inhibitors (TKI) used in the clinic via activation of two markers of apoptosis, namely annexin V and caspases 3 and 7. […] In fact, the levels of expression of these markers are identical under the conditions treated with the peptide and the control conditions. The peptide could therefore have a specific toxicity to cancer cells.

[1] = system: H1975 adenocarcinoma line (EGFR L858R/T790M); test: as above; settings: H1975, peptide 1 μM, 96 hours real time
Protocol: as §1, §2

[2] = system: H3255 adenocarcinoma line (EGFR L858R); test: as above; settings: H3255, peptide 1 μM, 96 hours real time
Protocol: as §1, §2

[3] = system: human fibroblasts (non-cancerous cells); test: as above; settings: peptide 1 μM, 96 hours real time, versus control
Protocol: as §1, §2

GRKKRRQRRRPPQVLIVKKYVCGGRFLVHRYSVLQQHAEANGVDGVDALDTASHTNKSGYHDDSDEDLLEGKPIPNPLLGLDST [SEQ ID NO 7]
quantity of intracellular peptide detected in the cell lysate (anti-V5 western blot) (cells): dose-dependent peptide penetration | subcellular distribution of the peptide (anti-V5 immunofluorescence, DAPI) (cell nuclei): punctiform nuclear distribution | IC50 (A549 cell line; A549, 24 hours incubation): 1420 nM | IC50 (A549 cell line; A549, 48 hours incubation): 1520 nM | IC50 (A549 cell line; A549, 72 hours incubation): 570 nM | level of annexin V (marker of apoptosis) (A549 line): increase | level of caspases 3 and 7 (marker of apoptosis) (A549 line): increase | level of annexin V (marker of apoptosis) [1]: increase | level of caspases 3 and 7 (marker of apoptosis) [1]: increase | level of annexin V (marker of apoptosis) [2]: increase | level of caspases 3 and 7 (marker of apoptosis) [2]: increase | activation of annexin V (marker of apoptosis) [3]: does not seem to lead to activation | activation of caspases 3 and 7 (marker of apoptosis) [3]: does not seem to lead to activation
